Like-named read-outs stand apart in the source and are kept apart here.
Columns and labels:
awake mice = experiment: Tail-cuff systolic blood pressure in awake mice; format: in vivo, mouse; settings: for tail systolic blood pressure after intravenous injection: awake wild type mice, 0.012 ml/g body weight i.v.
Protocol: The mouse was placed in a restrainer for this procedure. All mice were handled briefly and gently to inject a tetrameric hemoglobin solution into a lateral tail vein. Before injection, the tail was warmed under an infra-red heat lamp for 5 minutes to enable access to the vein. The injection volume was 0.012 ml/g body weight for each mouse. Infusion was done during the course of one minute.
With the use of volumetrically calibrated flowmeters (Cole-Parmer, Vernon Hills, Ill.), nitric oxide gas (800 ppm in nitrogen; INO Therapeutics, Clinton, […], Clinton, N.J.). The nitric oxide, nitrogen dioxide and oxygen (21%) levels were continuously monitored (INOvent delivery system, Datex-Ohmeda, Madison, Wis.).
(§1) The effects of breathing nitric oxide on systolic tail blood pressure after the infusion of murine tetrameric hemoglobin solution were monitored every 10 minutes for the 1st hour and every 20 minutes for the rest of the experiments. Blood hemoglobin and methemoglobin levels were measured every 15 minutes in the nitric oxide pretreatment group, wherein all mice breathed nitric oxide at 80 ppm for 1 hour before infusion. Hemoglobin and methemoglobin levels in whole blood and plasma were measured in additional mice after the intravenous infusion of tetrameric hemoglobin solution at 10 minutes and 60 minutes while breathing nitric oxide at 8 ppm or 80 ppm throughout the experiment.
Systolic blood pressure was measured with a non-invasive tail-cuff machine (XBP 1000, Kent Scientific, Torrington, Conn.) in wild type mice and NOS3^−/− mice. Mice were first subjected to one or two practice sessions to acclimate them to the device. The mouse was placed in a restrainer for a short period of time (<1 minute to start), then kept in the restrainer for longer times to acclimate to the device. The degree of acclimatization was judged by the absence of agitation in the device. After a few days of practice sessions, mice were restrained in a commercial mouse restraint device (Kent Scientific, Torrington, Conn.). […]
All values are expressed as mean±SEM. Data were analyzed using ANOVA. The difference in hemodynamic parameters before and after infusion of murine tetrameric hemoglobin or nitric oxide inhalation was examined by a paired t-test for repeated measurements. P values less than 0.05 were considered significant (as indicated by a * in the figures).

[1] = tested on: anesthetized wild type and NOS3−/− mice; experiment: Invasive hemodynamic measurements in anesthetized mice; format: in vivo, mouse; settings: for CO (cardiac output) / CVP (central venous pressure) / Ea (arterial elastance) / HR (heart rate) / LVEDP (left ventricular end-diastolic pressure) / LVESP (left ventricular end-systolic pressure) / SVR (systemic vascular resistance) / Tau (time constant of isovolumic relaxation) / dP/dtmax (maximum rate of developed left ventricular pressure) / dP/dtmin (minimum rate of developed left ventricular pressure): mean ± SEM
Protocol: To explore the mechanisms by which infusion of tetrameric hemoglobin causes systemic hypertension in awake wild type mice, invasive hemodynamic measurements were performed in anesthetized wild type and NOS3^−/− mice before and three minutes after infusion of murine tetrameric hemoglobin or whole murine blood as a control. Mice were anesthetized with an intraperitoneal injection of ketamine (100 mg/kg) and xylazine (5 mg/kg). Muscle relaxation was obtained by adding pancuronium (5 μg/g) after tracheal intubation. […] Two saline-filled PE-10 catheters were inserted separately via the jugular veins; one for monitoring central venous pressure (CVP) and the other for infusion of whole blood or tetrameric hemoglobin solution. A Millar pressure-volume catheter was inserted retrograde via the right carotid artery into the left ventricle (1.4F, model SPR839, Millar Instruments Inc., Houston, Tex.). After obtaining stable hemodynamic measurements, whole blood (1.44 g Hb/kg) or murine tetrameric Hb solution (0.48 g/kg) was infused through the jugular vein, at a rate of 100 μl/min for 3 min. PVAN software was used to analyze left ventricular pressure-volume loop data (Conductance Technologies Inc., San Antonio, Tex.).

awake lambs = format: in vivo, lamb
Excerpt: Lambs were briefly anesthetized, given a tracheostomy, the internal jugular vein was percutaneously catheterized and a flow directed Swan Ganz catheter passed into the pulmonary artery to permit measurements of central hemodynamics and cardiac output by thermaldilution. An arterial line was placed in the carotid artery. Animals were allowed several hours to awaken from anesthesia and were studied awake and restrained in a harness. Three groups of lambs were studied: (1) “autologous whole blood” animals donated autologous blood, which was stored with heparin anti-coagulation at 4° C.—two days later they received an infusion of their 37° C. autologous whole blood (12 ml/kg over 20 minutes) while breathing at FiO2=0.3 (n=3); (2) “HBOC-201” animals received an infusion of HBOC-201 (12 ml/kg over 20 minutes) while breathing at FiO2=0.3 (n=3); and (3) “HBOC-201 after iNO” animals inhaled 80 ppm nitric oxide at FiO2=0.3 for one hour before receiving an infusion of HBOC-201 (12 ml/kg over 20 minutes) (n=5). Systemic vascular resistance (SVR) and pulmonary vascular resistance (PVR) were calculated using standard formulae as follows: [SVR ([…])=(MAP−CVP)/CO*79.96]; and [PVR ([…])=(PAP−PCWP)/CI*79.96].
(1) “Autologous whole blood” animals received an infusion of 37° C. autologous whole blood (12 ml/kg over 20 minutes) while breathing at FiO2=0.3 (n=3); (2) “HBOC-201” animals received an infusion of 37° C. HBOC-201 (12 ml/kg over 20 minutes) while breathing at FiO2=0.3 (n=3); and (3) “HBOC-201 after high and low dose iNO” animals inhaled 80 ppm nitric oxide at FiO2=0.3 for one hour before receiving an infusion of HBOC-201 (12 ml/kg over 20 minutes), which was followed by breathing 5 ppm nitric oxide at FiO2=0.3 for two hours, which was followed by breathing at FiO2=0.3 (and discontinued inhalation of nitric oxide gas) for another one hour (n=4).

plasma hemoglobin [2] = molecular target: T1, plasma hemoglobin (Mus musculus, UniProt P01942+P02088); format: in vivo
T1 construct: The blood was frozen and thawed three times and then centrifuged; from tissue; host or cells: whole blood of wild type C57BL/6 mice (hemolysate, filtered, dialysed, concentrated)
T1 sequence (P01942 2-142 limits assumed): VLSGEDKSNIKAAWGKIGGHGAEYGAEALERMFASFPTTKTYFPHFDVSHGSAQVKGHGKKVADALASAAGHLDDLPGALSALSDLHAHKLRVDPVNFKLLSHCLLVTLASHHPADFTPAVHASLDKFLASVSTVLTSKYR
T1 sequence (P02088 2-147 limits assumed): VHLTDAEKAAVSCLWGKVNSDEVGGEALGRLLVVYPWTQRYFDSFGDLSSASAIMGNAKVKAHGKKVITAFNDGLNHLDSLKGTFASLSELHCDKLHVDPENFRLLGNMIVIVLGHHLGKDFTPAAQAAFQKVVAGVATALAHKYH
Protocol: Hemoglobin and methemoglobin concentration in whole blood and plasma were determined by the cyanomethemoglobin method measuring OD at 540 nm and 630 nm with a Spectrophotometer-Biomate 3 (Thermoelectron Corporation, Waltham, Mass.).
as §1

plasma hemoglobin [3] = molecular target: plasma hemoglobin (Bos taurus, UniProt P01966+P02070); experiment: Plasma methemoglobin concentration in awake lambs; format: in vivo, lamb
Chain of plasma hemoglobin (Bos taurus, UniProt P01966+P02070) (P01966 2-142 limits assumed): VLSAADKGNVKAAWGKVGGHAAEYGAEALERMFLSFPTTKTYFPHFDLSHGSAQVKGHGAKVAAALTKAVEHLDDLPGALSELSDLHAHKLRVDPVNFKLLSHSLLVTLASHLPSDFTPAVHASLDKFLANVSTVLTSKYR
Chain of plasma hemoglobin (Bos taurus, UniProt P01966+P02070) (P02070 whole entry): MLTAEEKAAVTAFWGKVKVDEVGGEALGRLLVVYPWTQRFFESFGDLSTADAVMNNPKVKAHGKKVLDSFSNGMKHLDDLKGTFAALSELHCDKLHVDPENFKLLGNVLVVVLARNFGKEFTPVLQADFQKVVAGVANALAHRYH
Excerpt: Lambs were briefly anesthetized, given a tracheostomy, the internal jugular vein was percutaneously catheterized and a flow directed Swan Ganz catheter passed into the pulmonary artery to permit measurements of central hemodynamics and cardiac output by thermaldilution. An arterial line was placed in the carotid artery. Animals were allowed several hours to awaken from anesthesia and were studied awake and restrained in a harness. […] Systemic vascular resistance (SVR) and pulmonary vascular resistance (PVR) were calculated using standard formulae as follows: [SVR ([…])=(MAP−CVP)/CO*79.96]; and [PVR ([…])=(PAP−PCWP)/CI*79.96].
Methemoglobin concentration in plasma was measured before and after breathing 80 ppm nitric oxide for one hour (and before and after infusion of autologous whole blood or HBOC-201). […]
Plasma methemoglobin concentration was measured before and after breathing nitric oxide at various concentrations (and before and after infusion of autologous whole blood or HBOC-201).

[4] = NOS3−/− mice breathing air, three minutes after infusion
[5] = WT mice breathing air, three minutes after infusion
[6] = WT ± iNO: WT mice breathing 80 ppm NO in air for 15 min, NO discontinued, then infusion
[7] = lambs breathing 80 ppm nitric oxide for one hour before HBOC-201, terminated immediately before infusion
[8] = lambs: 80 ppm nitric oxide one hour before HBOC-201, then 5 ppm after the infusion

For “Tetrameric Hb: tetrameric hemoglobin solution (4 g/dl) prepared from lysed whole blood of wild type C57BL/6 mice”, the “tail systolic blood pressure after intravenous injection” value (awake mice) was “significant increase in systolic blood pressure”, the “tail systolic blood pressure after intravenous injection” value (awake mice; listed as murine tetrameric hemoglobin solution) was “significant elevation in blood pressure” and the “systemic blood pressure after infusion” value (awake mice; solution containing 14.5% methemoglobin) was “caused systemic hypertension”. For the same compound, the “CO (cardiac output)” value [1, 4] was 9 ± 1 mL/min, the “CVP (central venous pressure)” value [1, 4] was 4 ± 0 mmHg and the “Ea (arterial elastance)” value [1, 4] was 8 ± 1 mmHg/μl. For the same compound, the “HR (heart rate)” value [1, 4] was 553 ± 18 bpm, the “LVEDP (left ventricular end-diastolic pressure)” value [1, 4] was 8 ± 2 mmHg and the “LVESP (left ventricular end-systolic pressure)” value [1, 4] was 117 ± 5 mmHg. The “SVR (systemic vascular resistance)” value [1, 4] was 15 ± 2 dynes*sec/cm^2, the “Tau (time constant of isovolumic relaxation)” value (from here on “Tau”) [1, 4] was 6 ± 1 ms and the “dP/dtmax (maximum rate of developed left ventricular pressure)” value (from here on “dP/dtmax”) [1, 4] was 13736 ± 606 mmHg/s. The “dP/dtmin (minimum rate of developed left ventricular pressure)” value (“dP/dtmin” for short) [1, 4] was −12290 ± 620 mmHg/s, the “CO (cardiac output)” value [1, 5] was 10 ± 1 mL/min and the “CVP (central venous pressure)” value [1, 5] was 3 ± 0 mmHg. The “Ea (arterial elastance)” value [1, 5] was 9 ± 1 mmHg/μl, the “HR (heart rate)” value [1, 5] was 602 ± 12 bpm and the “LVEDP (left ventricular end-diastolic pressure)” value [1, 5] was 12 ± 1 mmHg. For the same compound, the “LVESP (left ventricular end-systolic pressure)” value [1, 5] was 158 ± 5 mmHg, the “SVR (systemic vascular resistance)” value [1, 5] was 16 ± 1 dynes*sec/cm^2 and the “Tau” value [1, 5] was 8 ± 1 ms. For the same compound, the “dP/dtmax” value [1, 5] was 12260 ± 750 mmHg/s, the “dP/dtmin” value [1, 5] was −10110 ± 640 mmHg/s and the “CO (cardiac output)” value [1, 6] was 12 ± 1 mL/min. For the same compound, the “CVP (central venous pressure)” value [1, 6] was 4 ± 0 mmHg, the “Ea (arterial elastance)” value [1, 6] was 5 ± 0 mmHg/μl and the “HR (heart rate)” value [1, 6] was 603 ± 20 bpm. The “LVEDP (left ventricular end-diastolic pressure)” value [1, 6] was 6 ± 1 mmHg, the “LVESP (left ventricular end-systolic pressure)” value [1, 6] was 101 ± 4 mmHg and the “SVR (systemic vascular resistance)” value [1, 6] was 8 ± 1 dynes*sec/cm^2. The “Tau” value [1, 6] was 5 ± 0 ms, the “dP/dtmax” value [1, 6] was 11230 ± 750 mmHg/s and the “dP/dtmin” value [1, 6] was −10650 ± 430 mmHg/s. The “effect of infusion on invasive hemodynamic parameters” value ([1]; anesthetized NOS3−/− mice) was “did not alter HR, LVESP, LVEDP, CO, dP/dtmax, dP/dtmin, SVR, Ea, τ, or CVP” and the “effect of infusion on invasive hemodynamic parameters” value ([1]; anesthetized wild type mice) was “increased LVESP, LVEDP, SVR, Ea, and τ and decreased CO without affecting dP/dtmax, dP/dtmin, or CVP”.

For “HBOC-201: a chemically cross-linked bovine hemoglobin formulated in a salt solution; Biopure”, the “mean arterial pressure after infusion” value (awake lambs; in vivo) was “increase”, the “pulmonary arterial pressure after infusion” value (awake lambs; in vivo) was “increase” and the “pulmonary vascular resistance after infusion” value (awake lambs; in vivo) was “increase”. The “systemic vascular resistance after infusion” value (awake lambs; in vivo) was “increase”.

In the case of `[N]=O` [nitric oxide], the “hemoglobin-induced elevation in systolic blood pressure” value (“hemoglobin-induced elevation” for short) (awake mice; wild type mice breathing 80 ppm nitric oxide continuously before and subsequent to infusion of murine tetrameric hemoglobin solution) is reported as “prevented a hemoglobin-induced elevation in systolic blood pressure”, the “hemoglobin-induced elevation” value (awake mice; wild type mice breathing 80 ppm nitric oxide for 15 minutes before infusion, terminated at infusion) is reported as “prevented a hemoglobin-induced elevation in systolic blood pressure” and the “hemoglobin-induced elevation” value (awake mice; wild type mice breathing 80 ppm nitric oxide for one hour before infusion, terminated at infusion) is reported as “prevented a hemoglobin-induced elevation in systolic blood pressure”. For the same compound, the “hemoglobin-induced elevation” value (awake mice; wild type mice breathing 200 ppm nitric oxide for 7 minutes before infusion, terminated at infusion) was “prevented a hemoglobin-induced elevation in systolic blood pressure”, the “increase of LVESP, LVEDP, SVR, Ea and τ induced by murine tetrameric hemoglobin infusion” value ([1]; wild type mice pretreated with inhaled nitric oxide at 80 ppm for 15 minutes) was “abolished the increase of LVESP, LVEDP, SVR, Ea, and τ” and the “conversion of plasma hemoglobin to methemoglobin” value (plasma hemoglobin [2]; wild type mice breathing 80 ppm nitric oxide for one hour before infusion of murine tetrameric hemoglobin solution, terminated at infusion) was < 5%. For the same compound, the “conversion of plasma hemoglobin to methemoglobin” value (plasma hemoglobin [2]; wild type mice breathing 80 ppm nitric oxide while given murine tetrameric hemoglobin solution, 10 and 60 minutes after injection) was “conversion of a significant proportion of plasma hemoglobin to inactive methemoglobin”, the “plasma methemoglobin compared to lambs that received HBOC-201 without nitric oxide” value (plasma hemoglobin [3]; 80 ppm nitric oxide for one hour before HBOC-201, terminated at infusion) was “did not result in an increase in plasma methemoglobin” and the “plasma methemoglobin compared to animals that received HBOC-201 without nitric oxide” value (plasma hemoglobin [3]; 80 ppm nitric oxide one hour before HBOC-201, then 5 ppm after the infusion) was “did not result in an increase in plasma methemoglobin”. The “pulmonary hypertension after inhalation of 5 ppm nitric oxide was abruptly discontinued” value (awake lambs; lambs administered HBOC-201) was “rebounded”, the “increase in mean arterial pressure after HBOC-201 infusion” value (awake lambs; [7]) was “blocked the increase” and the “increase in pulmonary arterial pressure after HBOC-201 infusion” value (awake lambs; [7]) was “did not block the increase”. The “increase in pulmonary vascular resistance after HBOC-201 infusion” value (awake lambs; [7]) was “did not block the increase”, the “increase in systemic vascular resistance after HBOC-201 infusion” value (awake lambs; [7]) was “blocked the increase” and the “increase in mean arterial pressure after HBOC-201 infusion” value (awake lambs; [8]) was “blocked the increase”. For the same compound, the “increase in pulmonary arterial pressure after HBOC-201 infusion” value (awake lambs; [8]) was “blocked the increase”, the “increase in pulmonary vascular resistance after HBOC-201 infusion” value (awake lambs; [8]) was “blocked the increase” and the “increase in systemic vascular resistance after HBOC-201 infusion” value (awake lambs; [8]) was “blocked the increase”.

In the case of `O=NO` [sodium nitrite, Sodium nitrite], the “systemic hypertension caused by subsequent infusion of murine tetrameric hemoglobin” value (awake mice; awake mice, 48 nmol sodium nitrite i.v. five minutes before hemoglobin (0.48 g/kg)) is reported as “blocked the systemic hypertension”, the “blood pressure before murine tetrameric hemoglobin was infused” value (awake mice; awake mice, 48 nmol sodium nitrite via tail vein) is reported as “did not alter blood pressure” and the plasma methemoglobin level (plasma hemoglobin [2]; mouse, in vivo) is reported as 10±2%.
